# Experimental data from patent US12384751B2, “Allosteric activators of the ALPHA1A-adrenergic receptor” (The Cleveland Clinic Foundation, priority 2019, dated 2025).
# Entries after “also recorded” stand apart in the source; their conditions may differ.
# Assays:
# [1] = target: T1, α1D-AR (Homo sapiens, UniProt P25100); assay: Effect of compound on binding affinity of norepinephrine at α1D-AR; conditions: 10^−5M
# T1 construct: expressed in transfected cells; host or cells: Rat-1 fibroblast cells
# T1 sequence (P25100 1-572): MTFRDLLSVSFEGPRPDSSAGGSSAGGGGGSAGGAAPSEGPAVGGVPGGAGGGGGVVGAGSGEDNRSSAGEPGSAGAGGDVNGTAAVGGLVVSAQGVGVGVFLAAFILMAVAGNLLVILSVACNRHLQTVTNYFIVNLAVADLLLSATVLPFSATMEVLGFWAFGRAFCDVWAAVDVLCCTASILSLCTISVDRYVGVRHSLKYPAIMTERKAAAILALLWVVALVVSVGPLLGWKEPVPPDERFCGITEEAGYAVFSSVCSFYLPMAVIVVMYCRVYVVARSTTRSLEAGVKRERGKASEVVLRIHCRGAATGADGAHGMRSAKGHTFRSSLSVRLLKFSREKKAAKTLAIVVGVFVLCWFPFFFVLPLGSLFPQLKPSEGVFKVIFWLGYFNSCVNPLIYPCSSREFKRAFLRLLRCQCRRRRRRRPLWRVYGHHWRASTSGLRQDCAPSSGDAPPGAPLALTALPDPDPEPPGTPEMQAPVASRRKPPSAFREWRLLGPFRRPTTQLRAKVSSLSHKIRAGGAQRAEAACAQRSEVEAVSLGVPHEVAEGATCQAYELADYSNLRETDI
# Experimental: Competition binding assays: These compounds were characterized for their ligand binding properties at the α1-AR subtypes. The binding affinities of Compounds 1-10 were determined in a series of competition-binding experiments with the α1-AR-selective antagonist [^125I]HEAT as the radioligand. Assays were performed in duplicate in HEM buffer, in a total assay volume of 1000 μl. Radioligand binding assays are composed of 5 ug of membranes, harvested from Rat-1 fibroblast cells expressing only one of the alpha1-AR subtypes, HEM buffer containing GTP (composed of 20 mM HEPES, pH 7.4, 1.4 mM EGTA, 12.5 mM MgCl2, pH to 7.4), 0.5 mM GTP, 35-80 pM^125I-HEAT, and various doses of norepinephrine or epinephrine and incubated with shaking at 25° C. for 1-2 hours. The above conditions will convert all the conformations of the receptor into a single low affinity site. To show both high and low affinity sites of the receptor (typically seen with GPCR agonists), the GTP is removed from the binding buffer. Nonspecific binding was determined experimentally in the presence of 10^−4 M phentolamine. Unbound radioactivity was separated from membrane-bound radioactivity by filtration through Whatman GF/C filter paper. […] Bound radioactivity remaining on the filters was counted on an ICN gamma counter operating at 79.8% efficiency. Data are analyzed using Graphpad Prism. […]
# [2] = target: T2, α1A-AR (Homo sapiens, UniProt P35348); assay: Rapid cAMP screening assay for PAM effects (norepinephrine constant at Emax); assay type: cell-based, human and mouse; conditions: norepinephrine constant at 10^−4M; range over cell lines (fibroblasts, neuroblastoma, cardiomyocytes)
# T2 sequence (P35348 1-466): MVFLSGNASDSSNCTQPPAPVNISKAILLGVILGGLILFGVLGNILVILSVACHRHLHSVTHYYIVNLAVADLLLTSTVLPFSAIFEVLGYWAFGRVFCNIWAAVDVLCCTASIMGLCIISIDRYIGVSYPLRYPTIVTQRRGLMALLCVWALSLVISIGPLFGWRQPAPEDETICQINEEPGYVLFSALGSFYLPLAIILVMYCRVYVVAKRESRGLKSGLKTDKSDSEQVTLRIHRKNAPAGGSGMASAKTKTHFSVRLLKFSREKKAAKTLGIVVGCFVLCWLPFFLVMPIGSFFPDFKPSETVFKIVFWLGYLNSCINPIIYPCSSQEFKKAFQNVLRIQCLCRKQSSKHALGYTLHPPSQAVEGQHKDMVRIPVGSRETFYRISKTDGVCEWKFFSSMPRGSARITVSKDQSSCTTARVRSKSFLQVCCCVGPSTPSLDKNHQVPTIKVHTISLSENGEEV
# Experimental: cAMP assay: Cells expressing a single α1-adrenergic receptor subtype are washed and re-plated into 24-well plates in DMEM media without serum at approximately 2.4×10^4 cells/well. Cells are allowed to rest till the next day in a CO2 incubator at 37° C. The cells are washed twice with DMEM (no serum), then 1 ml of DMEM is added to each well. Cells are pre-incubated for 45 mins-1 hour at 37° C. in a CO2 incubator with 10 uM propranolol, followed by 100 uM IBMX for 30 minutes. Final DMSO concentration is at 0.05%. Norepinephrine or epinephrine is added in a dose response (1 dose per well) in addition to one of the Compounds 1-10 at one concentration (i.e. 10^−5M). Cells are incubated for another 30 mins at 37° C. in a CO2 incubator. The reaction is concluded by aspirating the media and adding 0.1M HCL. The mixture is incubated for 20 mins at room temperature. The cells are scraped and suspended until homogenous. The mixture is centrifuged at 1000 g for 10 mins and the supernatant assayed the same day according to a manufacturer's cAMP kit (Cayman Select Cyclic AMP EIA kit #501040).
# In this assay, the concentration of norepinephrine is held constant at its Emax (10^−4M) (FIG. 10, red line). Compound 3 is then added in a dose-response (FIG. 10, blue line). Any signal above the red line is potentiation. […]
structure (smiles),measurement,setting,value
"CC(C)Cc1c(OCC2=NCCN2)cccc1N(C)S(C)(=O)=O [Compound 3, N-[3-(4,5-Dihydro-1H-imidazol-2-ylmethoxy)-2-isobutyl-phenyl]-N-methyl-methanesulfonamide]",effect on affinity of norepinephrine at the α1D-AR,[1],no effect; also recorded: does not increase the affinity of norepinephrine
same,Emax of PAM potentiation,[2],35-60 % of the norepinephrine's maximum response
